Source: BindingDB's records for doi:10.1016/j.bmc.2006.03.042 (F. Hoffmann-La Roche, 2006)

What was measured:
Test in all cases: Serine Protease Inhibition Assay
Coagulation factor X = Coagulation factor X (Homo sapiens, UniProt P00742)
Protocol: (§1) The enzyme reactions were initiated by the addition of substrate, and the color developed from the release of p-nitroanilide from each chromogenic substrate was monitored continuously for 5 min at 405 nm on a microtiter plate reader. […] The apparent Ki values were then calculated according to the Cheng-Prusoff equation: Ki = IC50/1 + [S]/Km.

Coagulation factor VII = target: T1, Coagulation factor VII (Homo sapiens, UniProt P08709); conditions: pH 7.8; 22 °C
T1 sequence (P08709 whole entry): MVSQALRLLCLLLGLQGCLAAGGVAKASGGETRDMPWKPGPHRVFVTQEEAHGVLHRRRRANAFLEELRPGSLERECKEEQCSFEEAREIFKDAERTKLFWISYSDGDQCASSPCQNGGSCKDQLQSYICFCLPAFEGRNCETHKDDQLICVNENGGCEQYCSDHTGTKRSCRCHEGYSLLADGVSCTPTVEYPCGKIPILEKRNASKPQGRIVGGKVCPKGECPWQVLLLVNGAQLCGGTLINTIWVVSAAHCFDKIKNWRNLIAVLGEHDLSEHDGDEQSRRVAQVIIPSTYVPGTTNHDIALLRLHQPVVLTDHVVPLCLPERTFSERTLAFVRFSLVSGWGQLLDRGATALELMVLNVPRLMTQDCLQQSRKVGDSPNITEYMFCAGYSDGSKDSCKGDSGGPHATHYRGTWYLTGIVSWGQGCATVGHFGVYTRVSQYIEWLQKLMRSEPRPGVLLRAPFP
Protocol: as §1

Serine protease 1 = target: T2, Serine protease 1 (Bos taurus, UniProt P00760)
T2 sequence (P00760 whole entry): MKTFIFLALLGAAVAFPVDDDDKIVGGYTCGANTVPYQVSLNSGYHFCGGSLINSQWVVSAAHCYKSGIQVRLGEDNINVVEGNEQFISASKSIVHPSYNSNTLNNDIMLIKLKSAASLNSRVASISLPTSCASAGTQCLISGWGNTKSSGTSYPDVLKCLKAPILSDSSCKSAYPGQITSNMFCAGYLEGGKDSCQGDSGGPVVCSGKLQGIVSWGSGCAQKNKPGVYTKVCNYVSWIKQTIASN
Protocol: as §1

Prothrombin = Prothrombin (Homo sapiens, UniProt P00734); conditions: pH 7.8; 22 °C
Protocol: as §1

Sequence of Coagulation factor X (P00742 41-179 limits assumed): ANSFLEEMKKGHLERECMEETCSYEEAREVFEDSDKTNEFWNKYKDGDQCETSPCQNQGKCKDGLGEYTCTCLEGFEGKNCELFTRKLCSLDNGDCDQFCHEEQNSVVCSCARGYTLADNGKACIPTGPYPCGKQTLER
Sequence of Coagulation factor X (P00742 235-488 limits assumed): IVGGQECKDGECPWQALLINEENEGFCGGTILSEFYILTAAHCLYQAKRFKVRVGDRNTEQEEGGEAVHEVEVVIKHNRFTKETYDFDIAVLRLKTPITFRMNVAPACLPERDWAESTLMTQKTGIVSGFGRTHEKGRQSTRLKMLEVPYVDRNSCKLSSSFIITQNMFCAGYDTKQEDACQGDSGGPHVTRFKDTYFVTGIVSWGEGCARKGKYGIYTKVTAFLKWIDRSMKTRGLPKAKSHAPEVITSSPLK

Row | Ki (Coagulation factor X) [µM] | Ki (Coagulation factor VII) [µM] | Ki (Serine protease 1) [µM] | Ki (Prothrombin) [µM] | SMILES
1 | 1.2 | 0.088 | 3.1 | 7.1 | CCOc1cc(O[C@@H]2CCOC2)c(F)c([C@@H](Nc2ccc(C(=N)N)cc2)C(=O)O)c1 [2-[(4-carbamimidoylphenyl)amino]-2-[5-ethoxy-2-fluoro-3-(oxolan-3-yloxy)phenyl]acetic acid]
2 | 0.15 | 0.01 | 0.24 | 4.3 | COc1ccc(-c2ccc(C(=O)N[C@H](CO)C(C)(C)C)cc2C(=O)O)c(C(=O)Nc2ccc(C(=N)N)cc2)n1 [2-{2-[(4-carbamimidoylphenyl)carbamoyl]-6-methoxypyridin-3-yl}-5-{[(2S)-1-hydroxy-3,3-dimethylbutan-2-yl]carbamoyl}benzoic acid]
3 | 1.9 | 0.081 | 3.2 | 4.5 | CCOc1cc(O[C@@H]2CCOC2)c(F)c([C@@H](Nc2ccc(C(=N)N)cc2)C(=O)O)c1 [(2R)-2-[(4-carbamimidoylphenyl)amino]-2-{5-ethoxy-2-fluoro-3-[(3R)-oxolan-3-yloxy]phenyl}acetic acid]

The remaining lines, values behind:

Row | SMILES | Ki (Coagulation factor X) [µM] | Ki (Coagulation factor VII) [µM] | Ki (Serine protease 1) [µM] | Ki (Prothrombin) [µM]
4 | CCOc1cc(OCC)c(F)c(C(Nc2ccc(C(=N)N)cc2)C(=O)O)c1 (racemic) [2-[(4-carbamimidoylphenyl)amino]-2-(3,5-diethoxy-2-fluorophenyl)acetic acid] | 3 | 0.2 | 6.8 | 8.8
5 | CCOc1cc(OCC)cc(C(Nc2ccc(C(=N)N)cc2)C(=O)O)c1 (stereo not given) [2-[(4-carbamimidoylphenyl)amino]-2-(3,5-diethoxyphenyl)acetic acid] |  |  |  | > 35
6 | CCOc1cc(OC2CCOC2)cc(C(Nc2ccc(C(=N)N)cc2)C(=O)O)c1 (stereo not given) [(4-Carbamimidoyl-phenylamino)-[3-ethoxy-5-(tetra-hydrofuran-3-yloxy)-phenyl]-acetic acid] | 2.9 |  | > 6.8 | 10.7
